# Results: patent US20090023163A1, “Method of Measuring Enzyme Activity and Method of Evaluating Compound” (priority 2005, published 2009)
# What was measured:
# Type in all cases: biochemical
# [1] = biological target: T1, hElovl-1 (human elongase of very long chain fatty acids-like 1) (Homo sapiens, UniProt Q9BW60); assay: Measuring activity of hElovl-1 using N-Tag-hACBP (SPA); conditions: HEK293 microsomal sample of hElovl-1, 40 μM long chain fatty acid CoA, 60 μM malonyl-CoA, 37° C. 2 hours, FIG. 3
# T1 construct: implied by vector pCMV-Tag2B, own knowledge) (N); made in house; host or cells: HEK293, microsomal sample
# T1 sequence (Q9BW60 1-279): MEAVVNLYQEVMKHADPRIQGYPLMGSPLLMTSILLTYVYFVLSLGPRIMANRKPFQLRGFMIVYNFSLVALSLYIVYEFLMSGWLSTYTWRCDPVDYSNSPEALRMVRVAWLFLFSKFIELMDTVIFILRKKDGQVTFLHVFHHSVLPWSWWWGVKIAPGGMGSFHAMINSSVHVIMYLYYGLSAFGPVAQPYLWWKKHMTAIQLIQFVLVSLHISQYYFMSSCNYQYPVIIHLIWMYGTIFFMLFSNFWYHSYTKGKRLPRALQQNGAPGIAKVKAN
# Protocol: (§1) An assay buffer solution (100 mM sodium chloride, 100 mM Tris buffer solution, pH 6.5) containing the cell microsomal sample of hElovl-3 or hElovl-1 obtained by the above-mentioned preparation method, 1 μM rotenone (manufactured by Sigma), 1 mM NADPH (reduced nicotinamide adenine dinucleotide phosphate, manufactured by Sigma), 20 μM fatty acid-free bovine serum albumin (manufactured by Sigma), 40 μM long chain fatty acid CoA (manufactured by Sigma, manufactured by Avanti), and 50,000 dpm of 60 μM malonyl-CoA (manufactured by Sigma, Muromachi Yakuhin Kagaku) was incubated at 37° C. for 2 hours in a 96-well Opti-plate (Packard), and then, 0.25% octyl-beta-glucoside was added thereto to stop the reaction.
# (§2) Subsequently, 2 μg of a human acyl-CoA-binding protein tagged with a His tag at the N terminus and 500 μg of SPA resin (PVT copper His-Tag SPA Beads, manufactured by Amersham) were added to the reaction solution, and the resulting mixture was incubated at 37° C. for 30 minutes, followed by centrifugation at 3,000 rpm, and an activity was measured using a Top Count (Packard).
# (§3) In order to evaluate a specific activity, an expression vector in which either enzyme was not cloned was transfected into a host cell, HEK293 by the host cationic lipid method, and comparison was carried out with the microsomal sample obtained by a standard method from the expressing cell.
# [2] = biological target: T2, hElovl-3 (human elongase of very long chain fatty acids-like 3) (Homo sapiens, UniProt Q9HB03); assay: Measuring activity of hElovl-3 using N-Tag-hACBP (SPA); conditions: HEK293 microsomal sample of hElovl-3, 40 μM long chain fatty acid CoA, 60 μM malonyl-CoA, 37° C. 2 hours, FIG. 2
# T2 construct: made in house; host or cells: HEK293, microsomal sample
# T2 sequence (Q9HB03 1-270): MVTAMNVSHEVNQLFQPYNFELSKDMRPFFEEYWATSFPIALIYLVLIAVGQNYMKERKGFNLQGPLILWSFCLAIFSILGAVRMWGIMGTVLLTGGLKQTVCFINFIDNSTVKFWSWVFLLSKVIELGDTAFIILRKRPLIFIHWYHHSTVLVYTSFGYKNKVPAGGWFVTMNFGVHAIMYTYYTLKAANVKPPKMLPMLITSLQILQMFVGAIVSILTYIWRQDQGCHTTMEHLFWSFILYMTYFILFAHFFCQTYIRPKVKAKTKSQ
# Protocol: as §1, §2, §3
# [3] = biological target: T3, hLCE (human long chain fatty acyl elongase) (Homo sapiens, UniProt Q9H5J4); assay: Measuring LCE activity using N-Tag-hACBP (SPA); conditions: yeast microsomal sample of hLCE, 40 μM long chain fatty acid CoA, 60 μM malonyl-CoA, 37° C. 2 hours, FIG. 1
# T3 construct: made in house; host or cells: Pichia pastoris (yeast), microsomal sample
# T3 sequence (Q9H5J4 1-265): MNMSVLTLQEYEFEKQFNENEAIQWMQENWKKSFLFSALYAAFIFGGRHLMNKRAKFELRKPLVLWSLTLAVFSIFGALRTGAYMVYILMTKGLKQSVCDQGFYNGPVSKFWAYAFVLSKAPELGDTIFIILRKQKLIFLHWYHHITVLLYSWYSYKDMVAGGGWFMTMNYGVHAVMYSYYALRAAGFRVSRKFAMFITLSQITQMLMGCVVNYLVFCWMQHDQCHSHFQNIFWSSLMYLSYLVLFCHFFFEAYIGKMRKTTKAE
# Protocol: as §1, with “above-mentioned yeast” for “cell”, “sample,” for “sample of hElovl-3 or hElovl-1 obtained by the above-mentioned preparation method,”, “Sigma),” for “Sigma, manufactured by Avanti),”
# Subsequently, 2 μg of a human acyl-CoA-binding protein tagged with a His tag at the N terminus and 500 μg of SPA resin (PVT copper His-Tag SPA Beads, manufactured by Amersham) were added thereto, and the resulting mixture was incubated at 37° C. for 30 minutes.
# The solution after incubation was centrifuged at 3,000 rpm, and an activity was measured using a Top Count (Packard). Here, in order to evaluate a specific activity, an expression vector in which hLCE was not cloned was transfected into a host yeast, Pichia pastris by the electroporation method, whereby a transformed yeast was obtained. […]
Compound,enhancement of a signal (enzyme activity with the acyl-CoA used as the substrate) [1],enhancement of a signal (enzyme activity with the acyl-CoA used as the substrate) [2],enhancement of a signal (enzyme activity with the acyl-CoA used as the substrate) [3]
CCCCCCCCCCCCCCCCCCCC(=O)SCCNC(=O)CCNC(=O)[C@H](O)C(C)(C)COP(=O)(O)OP(=O)(O)OC[C@H]1O[C@@H](n2cnc3c(N)ncnc32)[C@H](O)[C@@H]1OP(=O)(O)O [arachidoyl-CoA],specific enhancement of a signal was observed,,
CCCCCCCCCCCCCCCCCCCCCCCC(=O)SCCNC(=O)CCNC(=O)[C@H](O)C(C)(C)COP(=O)(O)OP(=O)(O)OC[C@H]1O[C@@H](n2cnc3c(N)ncnc32)[C@H](O)[C@@H]1OP(=O)(O)O [lignoceroyl-CoA],enhancement of a signal was not observed,enhancement of a signal was not observed,
CCCCCCCCCCCCCCCC(=O)SCCNC(=O)CCNC(=O)[C@H](O)C(C)(C)COP(=O)(O)OP(=O)(O)OC[C@H]1O[C@@H](n2cnc3c(N)ncnc32)[C@H](O)[C@@H]1OP(=O)(O)O [palmitoyl-CoA],,,specific enhancement of a signal was observed
CCCCCCCCCCCCCCCCCC(=O)SCCNC(=O)CCNC(=O)[C@H](O)C(C)(C)COP(=O)(O)OP(=O)(O)OC[C@H]1O[C@@H](n2cnc3c(N)ncnc32)[C@H](O)[C@@H]1OP(=O)(O)O [stearoyl-CoA],,specific enhancement of a signal was observed,enhancement of a signal was not observed
